Patent US20060189679A1, “C10 cyclopropyl ester substituted taxane compositions” (priority 2005, published 2006)
Values joined by “and” are separate entries in the source; they are usually repeats but may differ in a detail not shown here. Equal entries are not always repeated. Where two headings read alike, the source gives them in different places.

Key:
[1] = tested on: PC-3 prostate carcinoma cells; test: In vitro cytotoxic activity (MTT, 72 hr); assay type: cell-based, human; settings: unit not given (dilutions in nM), read-out: In Vitro Antitumor Activity (IC50)
[2] = tested on: 1A9-PTX10 paclitaxel resistant ovarian carcinoma cells (tubulin mutation); test: In vitro cytotoxic activity (MTT, 72 hr); assay type: cell-based, human; settings: for IC50: 1A9-PTX10, ovarian, tubulin mutation, MTT 72 hr, unit not given (dilutions in nM), read-out: In Vitro Antitumor Activity (IC50)
[3] = tested on: SW480 human colon carcinoma xenografts; settings: mouse, in vivo; for controlling tumor growth compared to the lower doses of compound 3102: iv
[4] = tested on: LnCaP prostate carcinoma cells; test: In vitro cytotoxic activity (MTT, 72 hr); assay type: cell-based, human; settings: unit not given (dilutions in nM), read-out: In Vitro Antitumor Activity (IC50)
[5] = tested on: 1A9-PTX22 paclitaxel resistant ovarian carcinoma cells (tubulin mutation); test: In vitro cytotoxic activity (MTT, 72 hr); assay type: cell-based, human; settings: for IC50: 1A9-PTX22, ovarian, tubulin mutation, MTT 72 hr, unit not given (dilutions in nM), read-out: In Vitro Antitumor Activity (IC50)
[6] = tested on: HT-29 colon carcinoma cells; test: In vitro cytotoxic activity (MTT, 72 hr); assay type: cell-based, human; settings: unit not given (dilutions in nM), read-out: In Vitro Antitumor Activity (IC50)
[7] = tested on: DLD-1 resistant colon carcinoma cells (overexpresses p-glycoprotein); test: In vitro cytotoxic activity (MTT, 72 hr); assay type: cell-based, human; settings: DLD-1, colon, p-glycoprotein resistance, unit not given (dilutions in nM), read-out: In Vitro Antitumor Activity (IC50)
[8] = tested on: 1A9 ovarian carcinoma cells; test: In vitro cytotoxic activity (MTT, 72 hr); assay type: cell-based, human; settings: unit not given (dilutions in nM), read-out: In Vitro Antitumor Activity (IC50)
[9] = tested on: PANC-1 pancreatic adenocarcinoma cells; test: In vitro cytotoxic activity (MTT, 72 hr); assay type: cell-based, human; settings: unit not given (dilutions in nM), read-out: In Vitro Antitumor Activity (IC50)
[10] = tested on: 786-0 human renal carcinoma xenografts; settings: for Median survival / Median survival Ratio: iv
[11] = tested on: HCT116 human colon carcinoma cells; test: Cell cycle and apoptotic analyses (propidium iodide flow cytometry); assay type: cell-based; settings: HCT-116 cells, 24 hr exposure
[12] = tested on: DLD-1 multi-drug resistant human colon carcinoma xenografts; settings: for MDS to 2.0 g ± SEM (n): DLD1-e07 study; for antitumor activity: DLD e07, optimum dose, route (IV) and schedule; for # Death NTR (Non-Treatment Related) / # Death TR (Treatment Related): mouse, in vivo
[13] = tested on: HCT-116 colon carcinoma cells; test: In vitro cytotoxic activity (MTT, 72 hr); assay type: cell-based, human; settings: unit not given (dilutions in nM), read-out: In Vitro Antitumor Activity (IC50)
[14] = Toxicity profile on oral and IV dosing in rats; settings: dosed both orally and IV
[15] = Homo sapiens, Ovarian carcinoma cell
[16] = IV QWK × 3 25 mg/kg vs 5% EC in Saline PO Q4D × 4
[17] = IV QWK × 3 30 mg/kg vs 5% EC in Saline PO Q4D × 4

What does the source list for CC(=O)O[C@H]1C(=O)[C@@]2(C)[C@H]([C@H](OC(=O)c3ccccc3)[C@]3(O)C[C@H](OC(=O)[C@H](O)[C@@H](NC(=O)c4ccccc4)c4ccccc4)C(C)=C1C3(C)C)[C@]1(OC(C)=O)CO[C@@H]1C[C@@H]2O [Paclitaxel, paclitaxel]?
IC50 ([1]; Homo sapiens): 4.1 nM; IC50 ([2]; Homo sapiens, 1A9/ptx-10): > 40 nM; # Death NTR (Non-Treatment Related) [3]: 0; # Death TR (Treatment Related) [3]: 0; MDS to 2.0 g ± SEM (n) [3]: 26.2 ± 3.0; controlling tumor growth compared to the lower doses of compound 3102 [3]: as effective or slightly less effective in controlling tumor growth; IC50 ([4]; Homo sapiens): 3.1 nM; IC50 ([5]; Homo sapiens, 1A9/ptx-22): > 30 nM; IC50 ([6]; Homo sapiens): 2.6 nM; IC50 ([7]; Homo sapiens): > 10 nM; IC50 [8, 15]: 2.5 nM; IC50 ([9]; Homo sapiens): 4.2 nM; slowing of tumor growth vs control (statistical analysis, words) ([10]; 786-0 e89, optimum dose, route (IV) and schedule): did not appear to significantly slow the growth of tumors compared to control; Logrank Test Chi square ([10]; IV QOD × 5 30 mg/kg vs 5% EC in Saline PO Q4D × 4): 3.414; # Death NTR (Non-Treatment Related) ([10]; mouse, in vivo): 0; # Death TR (Treatment Related) ([10]; mouse, in vivo): 0; Day of Max. % BW Loss ([10]; mouse, in vivo): Day 13; MDS to 2.0 g ± SEM (n) ([10]; mouse, in vivo): 40.0 ± 6.6; Max. % BW Loss ([10]; mouse, in vivo): −7.6%;; Are the survival curves sig different? ([10]; mouse, in vivo, 30 mg/kg): No; Median survival ([10]; mouse, in vivo, 30 mg/kg): 51.15; Apoptotic (percentage of cells in sub G1 peak) ([11]; 10 nM): 24.0%; G1 (percentage of cells) ([11]; 10 nM): 31.1%; G2/M (percentage of cells) ([11]; 10 nM): 17.8%; S (percentage of cells) ([11]; 10 nM): 25.0%; Apoptotic (percentage of cells in sub G1 peak) ([11]; 100 nM): 15.3%; G1 (percentage of cells) ([11]; 100 nM): 7.0%; G2/M (percentage of cells) ([11]; 100 nM): 67.2%; S (percentage of cells) ([11]; 100 nM): 9.4%; MDS to 2.0 g ± SEM (n) ([12]; 30 mg/kg IV QOD × 5): 40.2 ± 4.7; antitumor activity [12]: failed to demonstrate significant antitumor activity against DLD-1 tumors; # Death NTR (Non-Treatment Related) [12]: 0; # Death TR (Treatment Related) ([12]; nude): 0

For docetaxel, which IC50 [13] is on record?
Its IC50 is 0.9 nM.

What about the IC50 [1] of the same molecule?
The IC50 was 2.8 nM.

And the IC50 [2]?
Its IC50 is 7 nM.

What about the “MDS to 2.0 g ± SEM (n)” value [3] of the same molecule?
Its value is 29.0 ± 7.8 and 32.4 ± 4.1.

And the non-treatment related death [3]?
Its non-treatment related death is “one”.

And the non-treatment related deaths [3]?
Its non-treatment related deaths is “two”.

What about the treatment related death [3] of the same molecule?
Its treatment related death is “one”.

What about the “controlling tumor growth compared to the lower doses of compound 3102” value [3] of the same molecule?
The value was “as effective or slightly less effective in controlling tumor growth”.

And the IC50 [4]?
Its IC50 is 1.9 nM.

And the IC50 [5]?
Its IC50 is 8.5 nM.

And the IC50 [6]?
Its IC50 is 1.2 nM.

What about the IC50 [7] of the same molecule?
The IC50 was 9.2 nM.

What about the IC50 [8] of the same molecule?
Its IC50 is 1.8 nM.

What about the IC50 [9] of the same molecule?
The IC50 was 2 nM.

And the “Hazard Ratio” value [10, 16]?
The value was 2.967.

And the “Logrank Test Chi square” value [10, 16]?
Its value is 4.859.

What about the “Hazard Ratio” value [10, 17] of the same molecule?
Its value is 3.39.

And the “Logrank Test Chi square” value [10, 17]?
The value was 5.271.

And the “# Death TR (Treatment Related)” value ([10]; mouse, in vivo)?
The value was 0.

What about the “MDS to 2.0 g ± SEM (n)” value ([10]; mouse, in vivo) of the same molecule?
The value was 52.1 ± 4.7 and 49.3 ± 4.3.

And the “slowing of tumor growth vs vehicle control (statistical analysis, words)” value ([10]; mouse, in vivo)?
Its value is “able to slow 786-0 tumor growth compared to the vehicle control”.

What about the “Are the survival curves sig different?” value ([10]; mouse, in vivo, 25 mg/kg) of the same molecule?
The value was “Yes”.

And the “Are the survival curves sig different?” value ([10]; mouse, in vivo, 30 mg/kg)?
The value was “Yes”.

And the “Median survival” value ([10]; mouse, in vivo, 25 mg/kg)?
Its value is 52.7.

And the “Median survival Ratio” value ([10]; mouse, in vivo, 25 mg/kg)?
The value was 0.704.

And the “Median survival” value ([10]; mouse, in vivo, 30 mg/kg)?
The value was 52.

What about the “Median survival Ratio” value ([10]; mouse, in vivo, 30 mg/kg) of the same molecule?
Its value is 0.7135.

What about the “Apoptotic (percentage of cells in sub G1 peak)” value ([11]; 10 nM) of the same molecule?
The value was 44.1%.

What about the “G1 (percentage of cells)” value ([11]; 10 nM) of the same molecule?
Its value is 10.4%.

And the “G2/M (percentage of cells)” value ([11]; 10 nM)?
The value was 17.1%.

And the “S (percentage of cells)” value ([11]; 10 nM)?
The value was 25.4%.

And the “Apoptotic (percentage of cells in sub G1 peak)” value ([11]; 100 nM)?
The value was 14.4%.

And the “G1 (percentage of cells)” value ([11]; 100 nM)?
Its value is 4.0%.

And the “G2/M (percentage of cells)” value ([11]; 100 nM)?
Its value is 68.0%.

What about the “S (percentage of cells)” value ([11]; 100 nM) of the same molecule?
The value was 11.6%.

And the “MDS to 2.0 g ± SEM (n)” value ([12]; 25 mg/kg IV Q7D × 3)?
The value was 35.0 ± 2.3.

And the “MDS to 2.0 g ± SEM (n)” value ([12]; 30 mg/kg IV Q7D × 3)?
The value was 37.6 ± 6.5.

And the “antitumor activity” value [12]?
Its value is “failed to demonstrate significant antitumor activity against DLD-1 tumors”.

And the “# Death NTR (Non-Treatment Related)” value [12]?
Its value is 0.

And the “# Death TR (Treatment Related)” value [12]?
The value was 0.

For CC(=O)O[C@@]12CO[C@@H]1C[C@H](O)[C@@]1(C)C(=O)[C@H](OC(=O)C3CC3)C3=C(C)[C@@H](OC(=O)[C@H](O)[C@@H](NC(=O)OCC(C)C)c4ccco4)C[C@@](O)([C@@H](OC(=O)c4ccccc4)C12)C3(C)C (stereo partly drawn) [Compound 3102], which IC50 ([13]; Homo sapiens) is on record?
Its IC50 is 0.9 nM.

What about the IC50 ([1]; Homo sapiens) of the same molecule?
Its IC50 is 1.8 nM.

What about the toxicity profile [14] of the same molecule?
Its toxicity profile is “favorable toxicity profile”.

What about the “potency compared to that of paclitaxel” value ([2]; 1A9-PTX10 (sentence covers 1A9-PTX10 and 1A9-PTX22)) of the same molecule?
Its value is 4 to 8 fold.

What about the IC50 ([2]; Homo sapiens, 1A9/ptx-10) of the same molecule?
Its IC50 is 5.2 nM.

And the treatment related death [3]?
Its treatment related death is “One”.

And the IC50 ([4]; Homo sapiens)?
The IC50 was 2.6 nM.

And the “potency compared to that of paclitaxel” value ([5]; 1A9-PTX22 (sentence covers 1A9-PTX10 and 1A9-PTX22))?
The value was 4 to 8 fold.

And the IC50 ([5]; Homo sapiens, 1A9/ptx-22)?
Its IC50 is 8.5 nM.

And the IC50 ([6]; Homo sapiens)?
The IC50 was 1.2 nM.

What about the IC50 ([7]; Homo sapiens) of the same molecule?
Its IC50 is 1.9 nM.

What about the IC50 [8, 15] of the same molecule?
The IC50 was 1.6 nM.

What about the IC50 ([9]; Homo sapiens) of the same molecule?
Its IC50 is 1.8 nM.

And the “Logrank Test Chi square” value ([10]; IV Q4D × 4 30 mg/kg vs 5% EC in Saline PO Q4D × 4)?
Its value is 5.459.

What about the “Logrank Test Chi square” value ([10]; PO Q4D × 4 50 mg/kg vs 5% EC in Saline PO Q4D × 4) of the same molecule?
Its value is 1.972.

What about the “Logrank Test Chi square” value ([10]; PO Q4D × 4 70 mg/kg vs 5% EC in Saline PO Q4D × 4) of the same molecule?
The value was 0.2502.

What about the “Logrank Test Chi square” value ([10]; PO Q4D × 4 80 mg/kg vs 5% EC in Saline PO Q4D × 4) of the same molecule?
The value was 5.234.

And the “Apoptotic (percentage of cells in sub G1 peak)” value ([11]; 10 nM)?
Its value is 24.4%.

What about the “G1 (percentage of cells)” value ([11]; 10 nM) of the same molecule?
Its value is 20.1%.

What about the “G2/M (percentage of cells)” value ([11]; 10 nM) of the same molecule?
The value was 27.3%.

And the “S (percentage of cells)” value ([11]; 10 nM)?
The value was 23.9%.

What about the “Apoptotic (percentage of cells in sub G1 peak)” value ([11]; 100 nM) of the same molecule?
The value was 11.7%.

What about the “G1 (percentage of cells)” value ([11]; 100 nM) of the same molecule?
The value was 7.0%.

What about the “G2/M (percentage of cells)” value ([11]; 100 nM) of the same molecule?
Its value is 74.0%.

What about the “S (percentage of cells)” value ([11]; 100 nM) of the same molecule?
Its value is 7.1%.

And the “MDS to 2.0 g ± SEM (n)” value ([12]; 30 mg/kg IV Q4D × 4)?
The value was 45.3 ± 4.6.

And the “MDS to 2.0 g ± SEM (n)” value ([12]; 50 mg/kg PO Q4D × 4)?
The value was 47.1 ± 3.9.

What about the “MDS to 2.0 g ± SEM (n)” value ([12]; 70 mg/kg PO Q4D × 4) of the same molecule?
The value was 46.1 ± 3.5.

And the “MDS to 2.0 g ± SEM (n)” value ([12]; 80 mg/kg PO Q4D × 4)?
Its value is 53.8±.
